Results reported in patent US20250262273A1, “MODIFIED CAVEOLIN-1 PEPTIDES FOR THE TREATMENT OF CHRONIC KIDNEY DISEASE” (Rein Therapeutics, Inc., priority 2021, published 2025).
Where “and” joins values, the source holds several entries; their conditions need not be identical. Equal entries are not always repeated. Non-standard residues stand in square brackets, D forms with d.

What was measured:
[1] = system: Col4a3−/− mice on a 129S1/SvlmJ background; experiment: Col4a3−/− mouse model of Alport syndrome, Study 1: two weeks of treatment; format: in vivo; conditions: for immunofluorescence staining of collagen I and nidogen on kidney tissue / immunofluorescence staining of collagen I and αSMA on kidney tissue: 0.0022 mg/g i.p. daily for 2 weeks, same finding in saline-treated mice
Text: (§1) The objective of this study was to evaluate the efficacy of the modified Cav-1 peptide APi2355 in ameliorating kidney fibrosis and disease using the Col4a3−/− mouse model of Alport syndrome. Alport syndrome mice (knockouts) have reduced Cav-1 expression in glomerulae tubules and develop glomerular fibrosis.
Col4a3−/− on the 129S1/SvlmJ develop end-stage renal disease at a faster rate compared to Col4a3−/− mice on the C57BL/6 background. Five week-old (Cohort 2) and 6 week-old (Cohort 1) Col4a3−/− mice on a 129S1/SvlmJ background were intraperitoneally injected daily with APi2355 (SEQ ID NO: 8, 0.0022 mg/g body weight) or with normal saline for 2 weeks. Urine was collected prior to treatment and on the day of sacrifice to monitor for glomerular permselectivity by measuring albumin to creatinine (A/C) ratios. Blood was collected on the day of sacrifice to monitor for glomerular filtration rate by blood urea nitrogen (BUN) assay and kidney tissue was collected following sacrifice to assess for renal injury and fibrosis. Mouse identification numbers were used to differentiate treatment groups.

[2] = system: Col4a3−/− mice on a 129S1/SvlmJ background; experiment: Col4a3−/− mouse model of Alport syndrome, Study 2: four weeks of treatment; format: in vivo; conditions: for Moderately Sclerotic Glom / Severely Sclerotic Glom / Moderately Sclerotic Glom (%) / Sclerotic Glom (%) / Severely Sclerotic Glom (%): 8 week-old, 4 weeks daily i.p. 0.0022 mg/g; for Moderately Sclerotic Glom / Severely Sclerotic Glom: count per individual mouse; for Moderately Sclerotic Glom (%) / Sclerotic Glom (%) / Severely Sclerotic Glom (%): per individual mouse
Protocol: as §1
Four week-old Col4a3−/− mice on a 129S1/SvlmJ background were intraperitoneally injected daily with APi2355 (SEQ ID NO: 8, 0.0022 mg/g body weight) or with normal saline for 4 weeks. Urine was collected prior to treatment at 4 weeks-old and at 6, 7, and 8-weeks-old following treatment to monitor for glomerular permselectivity by measuring albumin to creatinine (A/C) ratios. Blood was collected prior to treatment at 4 weeks-old and at 6 and 8 weeks-old following treatment to monitor for glomerular filtration rate using the BUN assay and kidney tissue was collected following sacrifice to assess for renal injury and fibrosis. Mouse identification numbers were used to differentiate treatment groups.

BLM-treated aged mice = experiment: Bleomycin model of lung fibrosis in aged mice, Study 2; format: in vivo; conditions: BLM 8 U/kg intratracheal, 73-74 week-old mice, 0.5 mg/mouse dry powder inhalation from day 14, sacrifice day 21, compared to control peptide
Protocol: (§2) The objective of this study was to evaluate the modified Cav-1 peptide CSP-7 in a bleomycin model of idiopathic pulmonary fibrosis and acute respiratory distress syndrome (ARDS). Aged male mice were selected to closely match the population of humans most vulnerable to ARDS.
Bleomycin (BLM, 8 U/kg) was administered intratracheally to 73-74 week-old mice (n=52) expecting approximately 50% loss of mice due to BLM-induced lung injury. On day 14 post-instillation, CSP-7 and a control peptide (CP) was administered to mice via dry powder inhalation (DPI) or intraperitoneal injection (IP) as shown in Table B below. On day 21 post-instillation, mice were sacrificed and blood and tissues were collected for analysis. Statistics were performed using Dunnett's multiple comparison test.

[3] = system: bleomycin-treated aged male mice; experiment: Bleomycin model of lung fibrosis in aged mice, Study 1 (Total Collagen Assay); format: in vivo, mouse; conditions: bleomycin 4 U/kg intratracheal, mice 74 to 76 weeks-old, dry powder inhalation, compared to control peptide
Text: as §2
Aged male mice, which have a higher burden of senescent cells and therefore less regenerative potential, were used to test the efficacy of CSP-7 (SEQ ID NO: 3). Mice were between 74 to 76 weeks-old at the time of intratracheal bleomycin installation (4 U/kg body weight; n=5-8 mice/group). The Total Collagen Assay (QuickZyme Biosciences) was used to assess total collagen in lung tissue, which first hydrolyzes proteins in the lung homogenate then oxidizes hydroxyproline and stains.

[4] = Cohort 1 (treatment start 6 weeks-old)
[5] = Cohort 2 (treatment start 5 weeks-old)
[6] = treatment starting at 4 weeks of age, 4 weeks, vs saline

With “Ac-aaEGKASFTTFTVTKGSaa-NH2 (Ac-[dA][dA]EGKASFTTFTVTKGS[dA][dA]-NH2; SMILES CC(=O)N[C@H](C)C(=O)N[C@H](C)C(=O)N[C@@H](CCC(=O)O)C(=O)NCC(=O)N[C@@H](CCCCN)C(=O)N[C@@H](C)C(=O)N[C@@H](CO)C(=O)N[C@@H](Cc1ccccc1)C(=O)N[C@H](C(=O)N[C@H](C(=O)N[C@@H](Cc1ccccc1)C(=O)N[C@H](C(=O)N[C@H](C(=O)N[C@H](C(=O)N[C@@H](CCCCN)C(=O)NCC(=O)N[C@@H](CO)C(=O)N[C@H](C)C(=O)N[C@H](C)C(N)=O)[C@@H](C)O)C(C)C)[C@@H](C)O)[C@@H](C)O)[C@@H](C)O) [APi2355, modified Cav-1 peptide]” the “immunofluorescence staining of collagen I and nidogen on kidney tissue” value [1, 4] was “additional staining in sclerotic glomeruli”, the “immunofluorescence staining of collagen I and αSMA on kidney tissue” value [1, 4] was “additional staining in sclerotic glomeruli” and the “kidney sclerosis, overall” value ([1]; Cohort 1 and Cohort 2, 2 weeks of treatment, same in saline-treated mice) was “severe sclerosis in the interstitium and many sclerotic glomeruli”. The “immunofluorescence staining of collagen I and nidogen on kidney tissue” value [1, 5] was “additional staining in sclerotic glomeruli”, the “immunofluorescence staining of collagen I and αSMA on kidney tissue” value [1, 5] was “additional staining in sclerotic glomeruli” and the “Moderately Sclerotic Glom” value ([2]; female Col4a3−/− mice) was 0 and 1 (2×). For the same substance, the “Severely Sclerotic Glom” value ([2]; female Col4a3−/− mice) was 4, the “Moderately Sclerotic Glom (%)” value ([2]; female Col4a3−/− mice) was 0.0% and 2.0% and 2.1% and the “Sclerotic Glom (%)” value ([2]; female Col4a3−/− mice) was 7.4% and 9.8% and 10.6%. For the same substance, the “Severely Sclerotic Glom (%)” value ([2]; female Col4a3−/− mice) was 7.4% and 7.8% and 8.5%, the “percentage of sclerotic glomeruli as assayed by collagen I deposition” value ([2]; females, treatment starting at 4 weeks of age, 4 weeks, vs saline) was “reduced the percentage of sclerotic glomeruli in females” and the “Moderately Sclerotic Glom” value ([2]; male Col4a3−/− mouse) was 6. The “Severely Sclerotic Glom” value ([2]; male Col4a3−/− mouse) was 21, the “Moderately Sclerotic Glom (%)” value ([2]; male Col4a3−/− mouse) was 15.0% and the “Sclerotic Glom (%)” value ([2]; male Col4a3−/− mouse) was 67.5%. The “Severely Sclerotic Glom (%)” value ([2]; male Col4a3−/− mouse) was 52.5%, the glomerular fibrosis ([2]; mouse model of Alport syndrome, overall conclusion) was “reduced glomerular fibrosis” and the “progression of BUN” value [2, 6] was “did not slow the progression”. For the same substance, the progression of albuminuria [2, 6] was “did not slow the progression”.
For “FTTFTVT (Modified Caveolin-1 peptide) [CSP-7, seven amino acid fragment of the human CSD of caveolin-1]”, the “total collagen in the lung” value (BLM-treated aged mice) was “reduction in total collagen” and the “total collagen in the lung” value [3] was “reduction in total collagen”.
